Measurements as given in paper PMC6712577 (Neuron, 2019).

Key:
[1] = biological target: neurokinin 1 receptor (NK1R) (Homo sapiens, UniProt P25103); test: BRET assay, antagonist mode; assay type: biochemical; settings: antagonist added 15 min before 100 nM substance P, Figure S4G
[2] = tested on: NAcC D2-MSNs; test: electrically evoked EPSCs, whole-cell voltage clamp, NAcC D2-MSNs; assay type: cell-based, mice; settings: for effect of antagonist alone on synaptic properties: absence of other stimuli, Figures S2C–S2F; for EPSC amplitude, %baseline (block of stimulation-induced potentiation) / EPSC amplitude, %baseline (block of stimulation-induced LLP) / EPSC amplitude, %baseline (block of substance-P-induced potentiation): mean ± SEM
[3] = tested on: NAcC ChAT neurons; test: ChAT neuron firing rate; assay type: cell-based, mice; settings: for spontaneous ChAT firing rate in the absence of substance P: L-733,060 10 μM or aprepitant 1 μM, Figure S4I; for stimulation-enhanced ChAT firing rate: 50-Hz D1-MSN stimulation; for substance-P-enhanced ChAT firing rate: substance P 100 nM
[4] = tested on: NAcS D2-MSNs; test: electrically evoked EPSCs, whole-cell voltage clamp, NAcS D2-MSNs; assay type: cell-based, mice; settings: D1-MSN 50-Hz stimulation
[5] = tested on: NAcC D2-MSNs; test: paired pulse ratios, NAcC D2-MSNs; assay type: cell-based, mice; settings: D1-MSN 50-Hz stimulation with inhibitor; Figures S7A–S7D
[6] = tested on: AMPAR currents on NAcC D2-MSNs; test: AMPAR current-voltage relationship; assay type: cell-based, mice; settings: +40 mV; for inward rectification of AMPAR currents caused by stimulation: D1-MSN 50-Hz stimulation with inhibitor, Figures 7B, 7D, 7F, 7H

Chain of neurokinin 1 receptor (NK1R) (P25103 whole entry, species assumed): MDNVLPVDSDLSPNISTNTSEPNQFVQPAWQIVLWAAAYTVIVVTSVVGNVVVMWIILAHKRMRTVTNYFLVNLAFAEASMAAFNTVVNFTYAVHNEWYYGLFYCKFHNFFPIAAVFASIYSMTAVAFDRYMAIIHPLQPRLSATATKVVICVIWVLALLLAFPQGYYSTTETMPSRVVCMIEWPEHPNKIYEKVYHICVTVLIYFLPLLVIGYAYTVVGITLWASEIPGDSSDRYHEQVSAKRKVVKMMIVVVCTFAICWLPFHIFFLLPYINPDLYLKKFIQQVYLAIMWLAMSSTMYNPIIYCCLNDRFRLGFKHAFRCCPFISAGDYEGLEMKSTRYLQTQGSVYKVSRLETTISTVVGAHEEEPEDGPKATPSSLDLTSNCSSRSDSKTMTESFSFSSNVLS
Chain of neurokinin 1 receptor (NK1R) (P50148 whole entry partner, species assumed): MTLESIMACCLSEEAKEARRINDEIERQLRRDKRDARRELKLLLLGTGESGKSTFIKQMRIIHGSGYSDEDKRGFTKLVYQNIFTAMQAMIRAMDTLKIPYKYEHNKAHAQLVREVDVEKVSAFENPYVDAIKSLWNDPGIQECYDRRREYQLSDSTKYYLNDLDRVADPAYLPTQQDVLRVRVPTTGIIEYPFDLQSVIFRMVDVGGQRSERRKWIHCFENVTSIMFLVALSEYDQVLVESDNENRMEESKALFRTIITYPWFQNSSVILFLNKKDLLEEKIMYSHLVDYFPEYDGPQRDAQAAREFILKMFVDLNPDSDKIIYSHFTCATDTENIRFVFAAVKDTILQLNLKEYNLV

**Q.** With `C[C@@H](O[C@H]1OCCN(Cc2n[nH]c(=O)[nH]2)[C@H]1c1ccc(F)cc1)c1cc(C(F)(F)F)cc(C(F)(F)F)c1` [aprepitant] as the compound, how does the “concentration of maximal inhibition of receptor activity” value [1] read?
**A.** ~10 µM

**Q.** And the “effect of antagonist alone on synaptic properties” value [2]?
**A.** neither L-733,060 nor aprepitant altered synaptic properties

**Q.** And the “EPSC amplitude, %baseline (block of stimulation-induced potentiation)” value ([2]; aprepitant 1 μM, single 5-s, 50-Hz train of D1-MSN stimulation, n = 8, p > 0.05, Figure 2G)?
**A.** 98.02% ± 10.73%

**Q.** And the “spontaneous ChAT firing rate in the absence of substance P” value [3]?
**A.** did not have effects on spontaneous ChAT firing rate

**Q.** And the “stimulation-enhanced ChAT firing rate” value ([3]; aprepitant 1 μM, n = 13, p > 0.05, Figure 5B)?
**A.** suppressed, but not completely blocked

**Q.** What about the “substance-P-enhanced ChAT firing rate” value ([3]; aprepitant 1 μM, Figure S4H) of the same compound?
**A.** suppressed

**Q.** Which “stimulation-induced depression on NAcS D2-MSNs” value ([4]; ambenonium 40 nM (acetylcholinesterase block), Figure S6G) does the source give for `CC[N+](CC)(CCNC(=O)C(=O)NCC[N+](CC)(CC)Cc1ccccc1Cl)Cc1ccccc1Cl` [ambenonium] here?
**A.** did not alleviate the depression

**Q.** Which “increase in baseline ChAT firing frequency” value ([3]; picrotoxin, on average, Figure S5F) does the source give for picrotoxin here?
**A.** 1.37 ± 0.66 Hz

**Q.** Which results are given for `COc1ccc2c(c1)CC[C@@H]1[C@@H]2CC[C@]2(C)[C@@H](NCCCCCCN3C(=O)C=CC3=O)CC[C@@H]12` [U-73122]?
**A.** EPSC amplitude, %baseline (block of stimulation-induced LLP) ([2]; U-73122 3 μM, D1-MSN 50-Hz stimulation, n = 9, p < 0.05, Figure 7C): 66.06% ± 8.70%; paired pulse ratio change after stimulation [5]: significantly increased; inward rectification of AMPAR currents caused by stimulation [6]: prevented inward rectification

**Q.** `Cl.FC(F)(F)c1cc(CO[C@H]2CCCN[C@H]2c2ccccc2)cc(C(F)(F)F)c1` [L-733,060] was tested. Which “concentration of maximal inhibition of receptor activity” value [1] did it give?
**A.** ~10 µM

**Q.** What about the “EPSC amplitude, %baseline (block of substance-P-induced potentiation)” value ([2]; L-733,060 10 μM with substance P bath application, n = 9, p > 0.05, Figure 2B) of the same compound?
**A.** 101.1% ±7.07%

**Q.** And the “EPSC amplitude, %baseline (block of stimulation-induced potentiation)” value ([2]; L-733,060, 5 min of NAcC D1-MSN 50-Hz stimulation, transient depression, Figure S2B)?
**A.** 79.52% ± 8.22%

**Q.** And the “effect of antagonist alone on synaptic properties” value [2]?
**A.** neither L-733,060 nor aprepitant altered synaptic properties

**Q.** And the “spontaneous ChAT firing rate in the absence of substance P” value [3]?
**A.** did not have effects on spontaneous ChAT firing rate

**Q.** What about the “stimulation-enhanced ChAT firing rate” value ([3]; L-733,060 10 μM, Figure S5C) of the same compound?
**A.** blocked

**Q.** What about the “substance-P-enhanced ChAT firing rate” value ([3]; L-733,060 10 μM, Figures 4F, 4G) of the same compound?
**A.** suppressed

**Q.** What about the “concentration of maximal inhibition of enhanced ChAT firing” value ([3]; against 100 nM substance P, Figure 4E) of the same compound?
**A.** 10 µM

**Q.** What does the source list for `O=C(O)CN(CC(=O)O)c1ccccc1OCCOc1ccccc1N(CC(=O)O)CC(=O)O` [BAPTA, 1,2-bis(o-aminophenoxy)ethane-N,N,N′,N′-tetra-acetic acid]?
**A.** cells potentiated ([2]; BAPTA 10 mM internal, D1-MSN 50-Hz stimulation, Figure 7E): 3/9; paired pulse ratio change after stimulation [5]: lack of ability to detect a change in PPR

**Q.** For `CC(=O)C1=C(O)[C@@H]2[C@H]3c4c[nH]c5cccc(c45)C[C@H]3C(C)(C)N2C1=O` [CPA, cyclopiazonic acid], which “EPSC amplitude, %baseline (block of stimulation-induced LLP)” value ([2]; CPA, depletion of calcium stores, D1-MSN 50-Hz stimulation, n = 8, p > 0.05, Figure 7G) is on record?
**A.** 80.18% ± 7.07%

**Q.** What about the “paired pulse ratio change after stimulation” value [5] of the same compound?
**A.** significantly increased

**Q.** And the “inward rectification of AMPAR currents caused by stimulation” value [6]?
**A.** prevented inward rectification

**Q.** For `Oc1ccc2c3c1O[C@H]1c4[nH]c5c(c4C[C@@]4(O)[C@@H](C2)N(CC2CC2)CC[C@]314)C[C@@]1(O)[C@H]2Cc3ccc(O)c4c3[C@@]1(CCN2CC1CC1)[C@H]5O4` [norbinaltorphimine], which “EPSC amplitude, %baseline (stimulation-induced depression)” value ([4]; norbinaltorphimine 400 nM, mean ± SEM, Figure S1H) is on record?
**A.** 61.56% ± 10.78%

**Q.** Which results are given for `CN1CCN(CC(=O)N2c3ccccc3C(=O)Nc3cccnc32)CC1` [pirenzepine]?
**A.** EPSC amplitude, %baseline (block of substance-P-induced potentiation) ([2]; pirenzepine 1 μM, substance P 100 nM, Figures 6A, S6B): 103.1% ± 12.95%; EPSC amplitude, %baseline (block of substance-P-induced potentiation) ([2]; pirenzepine 1 μM, substance P 1 μM, Figures 6A, S6B): 89.88% ± 9.14%; synaptic properties in D2-MSNs ([2]; pirenzepine alone, Figure S6E): did not affect synaptic properties; ChAT firing rate at baseline and its enhancement due to substance P ([3]; pirenzepine, Figures S6C, S6D): neither affected ChAT firing rate at baseline nor the enhancement in firing frequency due to substance P; AMPAR inward rectification caused by substance P or 50 Hz stimulation ([6]; pirenzepine, Figures 6C, 6D): prevented this rectification

**Q.** With `CC[C@H](NC(=O)c1c(C)c(-c2ccccc2)nc2ccccc12)c1ccccc1` [SB-2220] as the compound, how does the “substance-P-enhanced ChAT firing rate, further block” value ([3]; addition of 1 μM NK3R antagonist SB-2220, Figure S4J) read?
**A.** not blocked any further
